Results from ChEMBL document CHEMBL4376867 (J Med Chem, 2020).
Values after ≈ are worked out from the molar mass of the structure shown.

Legend:
Cytochrome P450 3A4 = Cytochrome P450 3A4 (Homo sapiens, UniProt P08684); test: Inhibition of CYP3A4 (unknown origin); type: ADME
[1] = molecular target: Voltage-gated inwardly rectifying potassium channel KCNH2 (Homo sapiens, UniProt Q12809); test: Inhibition of human ERG
[2] = Clearance in human liver microsomes at 1 uM measured upto 60 mins in presence of NADP by LC-MS/MS analysis; type: ADME, Microsome; conditions: 1 h
[3] = Hepatic extraction ratio in rat liver microsomes at 1 uM measured upto 60 mins by LC-MS/MS analysis
[4] = Hepatic extraction ratio in Han Wistar rat hepatocytes at 1 uM measured upto 90 mins by LC-MS/MS analysis
[5] = Volume of distribution at steady state in Wistar rat at 0.30 mg/kg, iv via bolus or 0.30 mg/kg, po measured upto 24 hrs by LC-MS/MS analysis; type: ADME, organism-based; conditions: in vivo, 0.3 mg/kg, read-out: Vdss
[6] = Terminal half life in Wistar rat at 0.30 mg/kg, iv via bolus or 0.30 mg/kg, po measured upto 24 hrs by LC-MS/MS analysis; type: ADME, organism-based; conditions: in vivo, 0.3 mg/kg, read-out: beta t1/2 (converted)
[7] = Oral bioavailability in Wistar rat at 0.30 mg/kg measured upto 24 hrs by LC-MS/MS analysis; type: ADME, organism-based; conditions: in vivo, 0.3 mg/kg
SK-MEL-2 [8] = test: Antitumor activity against human SK-MEL-2 cells harboring NRAS/TP53 mutation xenografted in NMRI nude mouse assessed as relative tumor area by measuring T/C ratio at 200 mg/kg, po bid measured after 35 days compound treatment; type: functional
SK-MEL-2 [9] = test: Antitumor activity against human SK-MEL-2 cells harboring NRAS/TP53 mutation xenografted in NMRI nude mouse assessed as tumor weight by measuring T/C ratio at 200 mg/kg, po bid measured after 35 days compound treatment; type: functional
[10] = Solubility of compound in water at pH 6.5; type: physicochemical

Chain of Cytochrome P450 3A4 (P08684 whole entry): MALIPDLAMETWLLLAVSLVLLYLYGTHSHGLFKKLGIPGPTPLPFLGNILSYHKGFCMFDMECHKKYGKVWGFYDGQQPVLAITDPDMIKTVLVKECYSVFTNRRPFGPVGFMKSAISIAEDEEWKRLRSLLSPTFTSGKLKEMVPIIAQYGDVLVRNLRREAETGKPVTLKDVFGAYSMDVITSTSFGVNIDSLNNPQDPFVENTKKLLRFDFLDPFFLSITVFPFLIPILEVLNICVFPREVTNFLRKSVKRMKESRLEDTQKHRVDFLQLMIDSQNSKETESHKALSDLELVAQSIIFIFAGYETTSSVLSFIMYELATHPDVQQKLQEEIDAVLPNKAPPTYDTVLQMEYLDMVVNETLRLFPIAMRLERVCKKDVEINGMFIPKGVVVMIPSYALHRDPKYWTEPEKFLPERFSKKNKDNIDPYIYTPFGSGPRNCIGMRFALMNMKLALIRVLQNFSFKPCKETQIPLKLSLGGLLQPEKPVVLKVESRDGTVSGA
Chain of Voltage-gated inwardly rectifying potassium channel KCNH2 (Q12809 whole entry): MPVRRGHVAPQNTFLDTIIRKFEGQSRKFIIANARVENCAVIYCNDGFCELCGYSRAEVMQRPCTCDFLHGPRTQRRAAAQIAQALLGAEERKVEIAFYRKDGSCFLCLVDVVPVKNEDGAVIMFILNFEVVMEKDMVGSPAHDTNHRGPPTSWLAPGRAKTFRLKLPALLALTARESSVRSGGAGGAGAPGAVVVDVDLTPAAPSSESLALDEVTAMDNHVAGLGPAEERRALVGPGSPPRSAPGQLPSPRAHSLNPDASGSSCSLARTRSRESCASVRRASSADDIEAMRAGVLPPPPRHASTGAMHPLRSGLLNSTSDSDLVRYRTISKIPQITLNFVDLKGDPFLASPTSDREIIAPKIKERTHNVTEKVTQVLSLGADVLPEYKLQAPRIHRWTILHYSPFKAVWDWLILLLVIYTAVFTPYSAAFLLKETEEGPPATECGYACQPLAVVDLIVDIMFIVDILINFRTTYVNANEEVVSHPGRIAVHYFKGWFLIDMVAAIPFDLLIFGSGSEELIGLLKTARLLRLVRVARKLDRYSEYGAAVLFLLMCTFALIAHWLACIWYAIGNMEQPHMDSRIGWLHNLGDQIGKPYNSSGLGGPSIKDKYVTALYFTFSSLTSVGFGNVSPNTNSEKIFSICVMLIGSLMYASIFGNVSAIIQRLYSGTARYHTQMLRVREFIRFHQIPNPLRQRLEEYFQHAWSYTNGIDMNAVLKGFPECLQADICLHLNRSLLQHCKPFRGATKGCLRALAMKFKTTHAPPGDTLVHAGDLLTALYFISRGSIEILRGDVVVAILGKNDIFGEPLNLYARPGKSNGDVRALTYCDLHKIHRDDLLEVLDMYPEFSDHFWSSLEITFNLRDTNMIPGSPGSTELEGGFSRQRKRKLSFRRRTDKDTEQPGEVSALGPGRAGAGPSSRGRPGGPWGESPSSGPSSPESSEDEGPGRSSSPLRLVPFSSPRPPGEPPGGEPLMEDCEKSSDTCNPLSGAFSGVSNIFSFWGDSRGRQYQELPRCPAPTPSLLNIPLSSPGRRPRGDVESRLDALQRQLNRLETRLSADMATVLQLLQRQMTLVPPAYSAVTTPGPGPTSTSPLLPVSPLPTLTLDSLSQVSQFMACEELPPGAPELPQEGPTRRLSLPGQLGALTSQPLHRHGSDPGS

## C[C@H](c1ccnc(Nc2nc3ccc(-c4cc(N(C)C)ncn4)cc3[nH]2)c1)N1CCN(C(=O)CC(F)(F)F)CC1 [BAY-985]
Cytochrome P450 3A4
  IC50: > 20 µM
[1]
  IC50: 4.7 µM
[2]
  CLH: 8.3 mL/min/kg
[3]
  hepatic extraction ratio at 1 h, 1 µM: 0.4
[4]
  hepatic extraction ratio at […], 1 µM: 0.4
[5]
  Vd: 2.9 L/kg
[6]
  half-life: 47.4 min
[7]
  bioavailability: 11%
SK-MEL-2 [8]
  T/C: 0.8
SK-MEL-2 [9]
  T/C: 0.6
[10]
  solubility: 0.8 µg/mL (≈ 1.45 µM)
